Assay results reported in US20240076279A1, “NOVEL BENZOAZEPINE COMPOUND, AND COMPOSITION AND USE THEREOF” (XUZHOU MEDICAL UNIVERSITY, priority 2021, published 2024).

Legend:
human V2R = human V2R (Homo sapiens, UniProt P30518); conditions: for residence time: read-out: RT (residence time of the compound to be tested on cells); for koff: read-out: koff (dissociation constant between the compound to be tested and cells); for kon: read-out: kon (association constant between the compound to be tested and cells)
human V2R, sequence (P30518 whole entry): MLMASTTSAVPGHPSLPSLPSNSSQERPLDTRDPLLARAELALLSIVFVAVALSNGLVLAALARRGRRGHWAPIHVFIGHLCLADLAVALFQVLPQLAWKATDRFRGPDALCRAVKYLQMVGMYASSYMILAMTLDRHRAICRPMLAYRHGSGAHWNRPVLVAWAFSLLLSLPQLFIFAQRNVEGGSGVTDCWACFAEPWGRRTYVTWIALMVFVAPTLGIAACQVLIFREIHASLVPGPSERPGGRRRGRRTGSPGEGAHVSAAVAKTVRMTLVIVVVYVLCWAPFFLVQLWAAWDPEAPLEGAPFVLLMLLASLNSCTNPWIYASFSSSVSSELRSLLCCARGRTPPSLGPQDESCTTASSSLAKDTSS

PKD1 knockout mice = assay: PKD mouse experiment; type: in vivo; conditions: 2 mg/kg subcutaneous injection, seven days of administration
Excerpt: Such compounds have antagonistic effects on arginine vasopressin receptors, and can inhibit the effect of cAMP in vivo, thereby inhibiting the occurrence and development of PKD. In this experiment, PKD1 knockout mice were used to evaluate the efficacy of these compounds.
1. Numbering the mice to perform gene identification: After 3 days of birth, the mice were marked by the method of cutting toes. The cut toes were placed in EP tubes marked in advance to boil, and then the genes were identified by agarose electrophoresis after PCR.
2. Preparation of corresponding medicaments: The corresponding weights of drugs were precisely weighed with an electronic balance and placed in new EP tubes. Then the corresponding amounts of HPMC were added with a pipette to prepare the medicaments of the desired concentration.
3. Administration to mice: The administrations of medicaments to mice was started on Day 6 or 5 after birth (the underweight mice were administered with medicaments on Day 6, and the rest of mice were administered with medicaments on Day 5), and the administration time was fixed (for example, 9:00 am). […]
5. Data processing: The total weight of the left and right kidneys, and the proportion of the kidneys, etc. were calculated.

MDCK cells = assay: PKD vesicle experiment (forskolin-induced vesicles of MDCK cells in matrigel); type: cell-based; conditions: 10 μM Forsklin, day 12
Method: The vesicles similar to those in PKD disease are formed by using MDCK cells under the action of AC enzyme agonist forskolin to simulate the occurrence and development of the disease, and the test compounds are respectively administered to observe their effects on the vesicles.
The MDCK cells were cultured at 37° C./5% CO2, with DMEM F12 medium (purchased from Combio technology company) supplemented with 10% fetal bovine serum and 1% double antibody.
During the re-cooling of matrigel, MDCK cells were digested and counted. […] The cells were incubated for 12 days, in which the medium was changed every 12 h, and photos were taken at days 4, 6, 8, 10, and 12. The photo area was selected to track the specific vesicles.
The diameters of vesicles were compared on day 12 to assess the effect of test compounds.

ADPKD patients = conditions: cited from earlier work

| residence time (human V2R) | koff (human V2R) | kon (human V2R) | Ki (human V2R) | affinity to V2R compared with Tolvaptan (human V2R; text summary of Table 7) | Compound | residence time with receptor compared with Tolvaptan (human V2R; text summary of Table 7) | Proportion of the kidneys % (PKD1 knockout mice) | The diameter of vesicles (MDCK cells) | serum hepatic transaminases (ADPKD patients; clinical trials, some patients) | excretion rate of sodium and urea (ADPKD patients; prospective study, 30 ADPKD patients, after administration) |
| --- | --- | --- | --- | --- | --- | --- | --- | --- | --- | --- |
| 12 ± 2 min | 0.00135 s⁻¹ | 160000 M⁻¹ s⁻¹ |  |  | Cc1ccccc1C(=O)Nc1ccc(C(=O)N2CCCC(NCCCCN3CCOCC3)c3cc(Cl)ccc32)c(C)c1 (stereo not drawn) [Compound 2, N-(4-(7-chloro-5-((4-morpholinobutyl)amino)-2,3,4,5-tetrahydro-1H-benzo[b]azepine-1-carbonyl)-3-methylphenyl)-2-methylbenzamide] |  |  |  |  |  |
| 7 ± 1 min | 0.0025 s⁻¹ | 183000 M⁻¹ s⁻¹ | 31 ± 7 nM |  | Cc1ccccc1C(=O)Nc1ccc(C(=O)N2CCCC(NCCCCCOc3ccccc3)c3cc(Cl)ccc32)c(C)c1 (stereo not drawn) [Compound 24, N-(4-(7-chloro-5-((5-phenoxypentyl)amino)-2,3,4,5-tetrahydro-1H-benzo[b]azepine-1-carbonyl)-3-methylphenyl)-2-methylbenzamide] |  |  |  |  |  |
| 21 ± 2 min | 0.000783 s⁻¹ | 333000 M⁻¹ s⁻¹ |  | comparable to the affinity of Tolvaptan | Cc1ccccc1C(=O)Nc1ccc(C(=O)N2CCCC(NCCN3CCOCC3)c3cc(Cl)ccc32)c(C)c1 (stereo not drawn) [Compound 4, N-(4-(7-chloro-5-((2-morpholinoethyl)amino)-2,3,4,5-tetrahydro-1H-benzo[b]azepine-1-carbonyl)-3-methylphenyl)-2-methylbenzamide] | longer residence time with receptor than Tolvaptan |  |  |  |  |
| 13 ± 1 min | 0.00125 s⁻¹ | 165000 M⁻¹ s⁻¹ |  | comparable to the affinity of Tolvaptan | Cc1ccccc1C(=O)Nc1ccc(C(=O)N2CCCC(NCCCc3ccncc3)c3cc(Cl)ccc32)c(C)c1 (stereo not drawn) [Compound 5, N-(4-(7-chloro-5-((3-(pyridin-4-yl)propyl)amino)-2,3,4,5-tetrahydro-1H-benzo[b]azepine-1-carbonyl)-3-methylphenyl)-2-methylbenzamide] |  |  |  |  |  |
| 7 ± 1 min | 0.00233 s⁻¹ | 350000 M⁻¹ s⁻¹ |  |  | Cc1ccccc1C(=O)Nc1ccc(C(=O)N2CCCC(NCCCN3CCN(C)CC3)c3cc(Cl)ccc32)c(C)c1 (stereo not drawn) [Compound 17, N-(4-(7-chloro-5-((3-(4-methylpiperazin-1-yl)propyl)amino)-2,3,4,5-tetrahydro-1H-benzo[b]azepine-1-carbonyl)-3-methylphenyl)-2-methylbenzamide] |  |  |  |  |  |
| 17 ± 2 min | 0.001 s⁻¹ | 18300 M⁻¹ s⁻¹ | 77 ± 26 nM |  | Cc1ccccc1C(=O)Nc1ccc(C(=O)N2CCCC(NCCOc3ccccc3)c3cc(Cl)ccc32)c(C)c1 (stereo not drawn) [Compound 21, N-(4-(7-chloro-5-((2-phenoxyethyl)amino)-2,3,4,5-tetrahydro-1H-benzo[b]azepine-1-carbonyl)-3-methylphenyl)-2-methylbenzamide] |  |  |  |  |  |
| 14 ± 2 min | 0.00118 s⁻¹ | 105000 M⁻¹ s⁻¹ |  |  | Cc1ccccc1C(=O)Nc1ccc(C(=O)N2CCCC(NCCCCCN3CCOCC3)c3cc(Cl)ccc32)c(C)c1 (stereo not drawn) [Compound 3, N-(4-(7-chloro-5-((5-morpholinopentyl)amino)-2,3,4,5-tetrahydro-1H-benzo[b]azepine-1-carbonyl)-3-methylphenyl)-2-methylbenzamide] |  |  |  |  |  |
|  |  |  |  |  | Cc1ccccc1C(=O)Nc1ccc(C(=O)N2CCCC(O)c3cc(Cl)ccc32)c(C)c1 (stereo not drawn) [Tolvaptan, tolvaptan, reference compound] |  | 15.80% | 183.7 μm | increased to more than three times the normal level | increased |
| 9 ± 1 min | 0.00183 s⁻¹ | 683000 M⁻¹ s⁻¹ |  | comparable to the affinity of Tolvaptan | Cc1ccccc1C(=O)Nc1ccc(C(=O)N2CCCC(NCCC(=O)N3CCOCC3)c3cc(Cl)ccc32)c(C)c1 (stereo not drawn) [Compound 13, N-(4-(7-chloro-5-((3-morpholino-3-oxopropyl)amino)-2,3,4,5-tetrahydro-1H-benzo[b]azepine-1-carbonyl)-3-methylphenyl)-2-methylbenzamide] |  |  |  |  |  |
|  |  |  |  |  | Cc1ccccc1C(=O)Nc1ccc(C(=O)N2CCCC(NCCCN3CCOCC3)c3cc(Cl)ccc32)c(C)c1 (stereo not drawn) [Compound 1, N-(4-(7-chloro-5-((3-morpholinopropyl)amino)-2,3,4,5-tetrahydro-1H-benzo[b]azepine-1-carbonyl)-3-methylphenyl)-2-methylbenzamide] |  | 11.85% | 172.0 μm |  |  |
